Measurements from ChEMBL document CHEMBL1201862, “PubChem BioAssay data set” (2004).
The source made the active and inactive calls.

What was measured:
[1] = target: Nuclear receptor subfamily 0 group B member 1 (Homo sapiens, UniProt P51843); experiment: Luminescence-based cell-based high throughput dose response assay for inhibitors of the orphan nuclear receptor subfamily 0, group B, member 1 (DAX1; NR0B1). [Related pubchem assays (depositor defined):AID504766, AID504790]; assay type: functional
HEK293 [2] = experiment: cells; assay type: functional, cell-based; details: Homo sapiens
[3] = HepG2 cell cytotoxicity, dose response, cytotoxicity control for non-replicating M. tuberculosis project (AID 489018); assay type: functional; details: Mycobacterium tuberculosis
HEK293 [4] = experiment: Fluorescence-based counterscreen for potentiators or agonists of NPY-Y2: cell-based high-throughput dose response assay to identify inhibitors of cyclic nucleotide gated ion channel (CNGC) activity. In this assay, the parental HEK293 cell line transfected with a cyclic-nucleotide gated ion channel (CNGC)-based cAMP sensor is used to measure inhibition of isoproterenol-induced CNGC activity by test compound.; assay type: functional; details: Homo sapiens
[5] = target: Nucleotide-binding oligomerization domain-containing protein 2 (Homo sapiens, UniProt Q9HC29); experiment: inhibition of NOD2-driven NF-kB reporter – cell-based, luminescence, uHTS, HEK293 (AID 1566); assay type: functional
HEK293 [6] = experiment: cells; assay type: functional, cell-based; details: Homo sapiens; remark: listed apart in the source
HEK293 [7] = experiment: cells; assay type: functional, cell-based; details: Homo sapiens; remark: listed apart in the source
HEK293 [8] = experiment: inhibition of NOD1-driven NF-kB reporter – cell-based, luminescence, uHTS, primary screen (AID 1578); assay type: functional; details: Homo sapiens
HEK293 [9] = experiment: cells; assay type: functional, cell-based; details: Homo sapiens; remark: listed apart in the source
[10] = target: T1, Microphthalmia-associated transcription factor (Homo sapiens, UniProt O75030); experiment: reducers of TRPM1 reporter luminescence, concentration series – cell-based, SK-MEL-5, cherry-picked, set 3, MITF inhibitor project, dose response (AID 493073); assay type: functional;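 further: SK-MEL-5 melanoma cells with luciferase driven by the MITF target TRPM1 promoter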
T1 sequence (O75030 whole entry): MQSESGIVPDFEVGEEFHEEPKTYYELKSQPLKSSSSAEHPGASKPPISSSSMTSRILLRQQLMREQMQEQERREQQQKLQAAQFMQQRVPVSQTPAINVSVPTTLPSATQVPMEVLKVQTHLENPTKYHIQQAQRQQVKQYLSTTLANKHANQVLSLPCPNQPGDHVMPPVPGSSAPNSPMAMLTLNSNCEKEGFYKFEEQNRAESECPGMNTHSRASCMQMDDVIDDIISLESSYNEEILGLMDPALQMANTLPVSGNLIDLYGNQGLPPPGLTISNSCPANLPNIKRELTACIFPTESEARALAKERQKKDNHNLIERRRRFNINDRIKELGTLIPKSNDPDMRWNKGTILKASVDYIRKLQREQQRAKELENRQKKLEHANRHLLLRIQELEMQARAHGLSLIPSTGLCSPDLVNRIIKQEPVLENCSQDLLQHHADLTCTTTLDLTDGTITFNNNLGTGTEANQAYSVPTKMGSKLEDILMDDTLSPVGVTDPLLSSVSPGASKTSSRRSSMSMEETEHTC

Vero = experiment: cells; assay type: functional; details: Chlorocebus sabaeus
[11] = target: T2, Neuropeptide Y receptor type 2 (Homo sapiens, UniProt P49146); experiment: Fluorescence-based cell-based high-throughput dose response assay for agonists of NPY-Y2. [Related pubchem assays: 1703 (Screening assay (CNGC inhibitors).), 1359 (Screening assay (NPY-Y2 potentiators or agonists).), 1304 (Screening assay (NPY-Y1 potentiators or agonists).), 1710 (Screening assay (NPY-Y2 agonists).), 1791 (Summary AID.)]; assay type: functional
T2 sequence (P49146 whole entry): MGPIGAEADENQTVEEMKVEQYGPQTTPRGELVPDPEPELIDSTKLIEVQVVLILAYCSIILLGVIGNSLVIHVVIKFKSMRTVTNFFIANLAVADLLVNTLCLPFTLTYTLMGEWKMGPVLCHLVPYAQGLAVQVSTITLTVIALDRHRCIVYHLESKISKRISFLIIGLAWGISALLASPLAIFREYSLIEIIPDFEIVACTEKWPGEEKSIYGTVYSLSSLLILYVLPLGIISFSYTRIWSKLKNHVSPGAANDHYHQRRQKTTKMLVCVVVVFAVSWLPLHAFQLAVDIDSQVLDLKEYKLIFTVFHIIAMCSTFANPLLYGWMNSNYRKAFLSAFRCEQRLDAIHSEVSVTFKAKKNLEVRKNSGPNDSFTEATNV

HEK293 [12] = experiment: NOD2 signaling inhibitors in MDP-stimulated cells, cell-based, uHTS, luminescence (AID 2001); assay type: functional; details: Homo sapiens
[13] = THP-1 cell cytotoxicity, dose response, cytotoxicity control for non-replicating M. tuberculosis project (AID 489025); assay type: functional
cells = assay type: functional
[14] = target: T3, Neuropeptide Y receptor type 1 (Homo sapiens, UniProt P25929); experiment: Fluorescence-based counterscreen for agonists of NPY-Y2: cell-based high-throughput dose response assay for agonists of NPY-Y1.; assay type: functional
T3 sequence (P25929 whole entry): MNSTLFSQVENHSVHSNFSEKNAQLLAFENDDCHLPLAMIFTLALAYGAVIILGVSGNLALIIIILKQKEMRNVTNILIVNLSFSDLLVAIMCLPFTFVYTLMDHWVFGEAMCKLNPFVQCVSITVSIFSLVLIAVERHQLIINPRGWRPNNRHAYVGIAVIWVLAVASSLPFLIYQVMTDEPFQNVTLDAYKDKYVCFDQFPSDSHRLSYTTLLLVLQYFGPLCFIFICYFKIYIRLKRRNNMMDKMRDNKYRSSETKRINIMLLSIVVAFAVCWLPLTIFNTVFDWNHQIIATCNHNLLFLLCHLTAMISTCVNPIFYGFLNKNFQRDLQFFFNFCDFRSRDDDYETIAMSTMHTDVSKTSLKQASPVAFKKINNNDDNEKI

Caspase-3 = target: T4, Caspase-3 (Homo sapiens, UniProt P42574); assay type: functional;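 further: Dose-response selectivity test against caspase-3 for candidate inhibitors of sentrin-specific proteases (SENPs)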
T4 sequence (P42574 whole entry): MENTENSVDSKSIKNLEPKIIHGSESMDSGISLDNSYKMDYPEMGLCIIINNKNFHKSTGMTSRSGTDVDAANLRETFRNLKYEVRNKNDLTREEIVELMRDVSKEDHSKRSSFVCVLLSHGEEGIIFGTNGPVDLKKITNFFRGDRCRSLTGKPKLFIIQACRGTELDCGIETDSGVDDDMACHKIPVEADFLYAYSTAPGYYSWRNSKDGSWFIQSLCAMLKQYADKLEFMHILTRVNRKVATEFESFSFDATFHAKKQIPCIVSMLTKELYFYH

[15] = target: T5, Sentrin-specific protease 8 (Homo sapiens, UniProt Q96LD8); assay type: functional;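 further: luminescence read-out of SENP8 inhibition, dose-response confirmation following an ultra-high-throughput screen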
T5 sequence (Q96LD8 whole entry): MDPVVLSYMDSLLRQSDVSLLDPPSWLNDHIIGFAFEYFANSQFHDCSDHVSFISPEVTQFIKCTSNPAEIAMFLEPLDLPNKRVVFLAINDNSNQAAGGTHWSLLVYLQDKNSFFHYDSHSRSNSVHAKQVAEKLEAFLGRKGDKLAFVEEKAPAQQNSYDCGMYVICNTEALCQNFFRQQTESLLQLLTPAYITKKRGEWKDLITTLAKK

Fatty acid synthase [16] = target: T6, Fatty acid synthase (Homo sapiens, UniProt P49327); experiment: inhibition of human FAS-TE enzyme activity – biochemical, endpoint fluorescence intensity, uHTS hits, dose response (AID 624327); assay type: functional;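 further: fluorescence from hydrolysis of an O-methyl fluorescein acyl ester substrate by the enzyme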
INS1 = experiment: INS-1E survival protection against cytokine death – cell-based, luminescence, retest, dose response (AID 449756); assay type: functional; details: Rattus norvegicus;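 further: cell death triggered by IL-1 beta plus TNF-alpha plus IFN-gamma mixture; protective hits raise ATP signal compared with cytokine alone wells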
[17] = target: T7, Sentrin-specific protease 6 (Homo sapiens, UniProt Q9GZR1); assay type: functional;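 further: Luminescence-based dose-response confirmatory assay of SENP6 inhibition, following up an ultra-high-throughput screen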
T7 sequence (Q9GZR1 whole entry): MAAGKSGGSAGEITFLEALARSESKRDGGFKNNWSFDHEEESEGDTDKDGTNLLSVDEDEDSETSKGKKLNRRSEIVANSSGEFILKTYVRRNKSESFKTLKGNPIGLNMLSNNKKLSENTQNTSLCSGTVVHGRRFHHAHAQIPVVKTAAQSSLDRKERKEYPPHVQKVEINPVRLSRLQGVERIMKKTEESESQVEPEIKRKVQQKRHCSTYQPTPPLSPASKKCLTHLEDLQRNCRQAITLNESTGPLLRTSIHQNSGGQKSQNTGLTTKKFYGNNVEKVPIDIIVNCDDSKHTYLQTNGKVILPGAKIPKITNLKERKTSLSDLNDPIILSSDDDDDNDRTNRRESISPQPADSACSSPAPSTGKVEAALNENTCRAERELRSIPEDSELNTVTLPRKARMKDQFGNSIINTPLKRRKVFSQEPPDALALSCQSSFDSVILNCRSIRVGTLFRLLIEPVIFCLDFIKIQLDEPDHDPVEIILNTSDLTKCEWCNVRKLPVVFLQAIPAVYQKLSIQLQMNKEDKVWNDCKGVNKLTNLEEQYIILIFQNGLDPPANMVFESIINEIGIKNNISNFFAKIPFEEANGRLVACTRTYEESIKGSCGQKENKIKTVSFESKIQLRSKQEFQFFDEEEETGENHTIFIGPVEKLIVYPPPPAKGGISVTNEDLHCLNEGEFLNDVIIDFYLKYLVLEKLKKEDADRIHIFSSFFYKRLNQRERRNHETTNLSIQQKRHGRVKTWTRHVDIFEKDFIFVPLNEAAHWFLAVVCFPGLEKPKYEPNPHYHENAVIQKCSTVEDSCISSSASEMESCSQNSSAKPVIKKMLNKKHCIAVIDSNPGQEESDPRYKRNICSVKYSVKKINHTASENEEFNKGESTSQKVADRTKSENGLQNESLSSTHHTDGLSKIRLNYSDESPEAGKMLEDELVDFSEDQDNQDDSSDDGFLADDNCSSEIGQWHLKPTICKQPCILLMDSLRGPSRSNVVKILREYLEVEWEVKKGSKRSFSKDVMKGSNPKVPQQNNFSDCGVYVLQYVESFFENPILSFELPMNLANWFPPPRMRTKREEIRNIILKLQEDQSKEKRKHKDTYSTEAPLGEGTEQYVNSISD

Fatty acid synthase [18] = target: T6, Fatty acid synthase; experiment: inhibition of human FAS-TE enzyme activity – biochemical, kinetic fluorescence intensity, dose response (AID 624326); assay type: functional;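 further: rate of fluorescence rise from hydrolysis of a fluorogenic O-methyl fluorescein ester substrate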
[19] = MIN6 cell viability loss – mouse insulinoma, cytotoxicity control, dose response (AID 2122); assay type: functional;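 further: confirmatory high-throughput counterscreen run to flag cytotoxic compounds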
[20] = target: T8, Sentrin-specific protease 7 (Homo sapiens, UniProt Q9BQF6); assay type: functional;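 further: Luminescence-based dose-response confirmation of ultra-high-throughput screening hits, measuring inhibition of SENP7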
T8 sequence (Q9BQF6 whole entry): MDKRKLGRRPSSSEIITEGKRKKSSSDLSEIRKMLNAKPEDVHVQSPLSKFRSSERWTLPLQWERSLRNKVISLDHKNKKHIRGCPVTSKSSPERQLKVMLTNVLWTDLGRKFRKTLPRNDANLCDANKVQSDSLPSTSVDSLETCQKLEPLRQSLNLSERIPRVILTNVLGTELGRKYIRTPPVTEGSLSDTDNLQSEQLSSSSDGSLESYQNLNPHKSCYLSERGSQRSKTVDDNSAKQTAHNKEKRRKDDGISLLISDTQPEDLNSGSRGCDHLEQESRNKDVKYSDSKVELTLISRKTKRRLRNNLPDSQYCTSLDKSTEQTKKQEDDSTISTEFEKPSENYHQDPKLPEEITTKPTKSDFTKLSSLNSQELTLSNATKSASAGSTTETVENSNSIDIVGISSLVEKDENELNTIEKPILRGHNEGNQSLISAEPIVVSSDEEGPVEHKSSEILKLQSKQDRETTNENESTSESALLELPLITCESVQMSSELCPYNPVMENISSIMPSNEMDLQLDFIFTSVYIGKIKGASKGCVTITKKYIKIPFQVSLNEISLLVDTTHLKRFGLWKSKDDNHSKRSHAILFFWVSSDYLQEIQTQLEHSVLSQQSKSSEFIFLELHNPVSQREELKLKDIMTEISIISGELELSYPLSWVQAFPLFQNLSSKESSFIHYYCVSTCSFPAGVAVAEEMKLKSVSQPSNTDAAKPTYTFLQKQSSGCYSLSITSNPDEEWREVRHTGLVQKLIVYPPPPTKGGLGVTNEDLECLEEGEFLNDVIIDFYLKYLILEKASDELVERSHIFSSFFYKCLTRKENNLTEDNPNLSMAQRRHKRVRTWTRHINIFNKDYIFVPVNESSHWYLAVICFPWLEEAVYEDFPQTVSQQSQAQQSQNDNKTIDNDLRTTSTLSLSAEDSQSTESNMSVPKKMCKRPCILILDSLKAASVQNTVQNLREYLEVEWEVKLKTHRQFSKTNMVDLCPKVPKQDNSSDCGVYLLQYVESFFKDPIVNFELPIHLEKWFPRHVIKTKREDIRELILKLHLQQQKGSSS

[21] = decrease of insulin promoter-GFP reporter – imaging, high-content screening, mouse beta cells (AID 1628); assay type: functional; details: MIN6
[22] = reduced cellular PGC1a acetyl-lysine signal – cell-based, cherry-picked samples, dose response (AID 720514); assay type: functional;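 further: potency may reflect raised or lowered acetylation signal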
A-375 = experiment: MITF: Counter assay: A375 proliferation Measured in Cell-Based System Using Plate Reader - 2084-03_Inhibitor_Dose_DryPowder_Activity. [Related pubchem assays (depositor defined):AID488944]; assay type: functional; details: Homo sapiens

T6 sequence (P49327 whole entry): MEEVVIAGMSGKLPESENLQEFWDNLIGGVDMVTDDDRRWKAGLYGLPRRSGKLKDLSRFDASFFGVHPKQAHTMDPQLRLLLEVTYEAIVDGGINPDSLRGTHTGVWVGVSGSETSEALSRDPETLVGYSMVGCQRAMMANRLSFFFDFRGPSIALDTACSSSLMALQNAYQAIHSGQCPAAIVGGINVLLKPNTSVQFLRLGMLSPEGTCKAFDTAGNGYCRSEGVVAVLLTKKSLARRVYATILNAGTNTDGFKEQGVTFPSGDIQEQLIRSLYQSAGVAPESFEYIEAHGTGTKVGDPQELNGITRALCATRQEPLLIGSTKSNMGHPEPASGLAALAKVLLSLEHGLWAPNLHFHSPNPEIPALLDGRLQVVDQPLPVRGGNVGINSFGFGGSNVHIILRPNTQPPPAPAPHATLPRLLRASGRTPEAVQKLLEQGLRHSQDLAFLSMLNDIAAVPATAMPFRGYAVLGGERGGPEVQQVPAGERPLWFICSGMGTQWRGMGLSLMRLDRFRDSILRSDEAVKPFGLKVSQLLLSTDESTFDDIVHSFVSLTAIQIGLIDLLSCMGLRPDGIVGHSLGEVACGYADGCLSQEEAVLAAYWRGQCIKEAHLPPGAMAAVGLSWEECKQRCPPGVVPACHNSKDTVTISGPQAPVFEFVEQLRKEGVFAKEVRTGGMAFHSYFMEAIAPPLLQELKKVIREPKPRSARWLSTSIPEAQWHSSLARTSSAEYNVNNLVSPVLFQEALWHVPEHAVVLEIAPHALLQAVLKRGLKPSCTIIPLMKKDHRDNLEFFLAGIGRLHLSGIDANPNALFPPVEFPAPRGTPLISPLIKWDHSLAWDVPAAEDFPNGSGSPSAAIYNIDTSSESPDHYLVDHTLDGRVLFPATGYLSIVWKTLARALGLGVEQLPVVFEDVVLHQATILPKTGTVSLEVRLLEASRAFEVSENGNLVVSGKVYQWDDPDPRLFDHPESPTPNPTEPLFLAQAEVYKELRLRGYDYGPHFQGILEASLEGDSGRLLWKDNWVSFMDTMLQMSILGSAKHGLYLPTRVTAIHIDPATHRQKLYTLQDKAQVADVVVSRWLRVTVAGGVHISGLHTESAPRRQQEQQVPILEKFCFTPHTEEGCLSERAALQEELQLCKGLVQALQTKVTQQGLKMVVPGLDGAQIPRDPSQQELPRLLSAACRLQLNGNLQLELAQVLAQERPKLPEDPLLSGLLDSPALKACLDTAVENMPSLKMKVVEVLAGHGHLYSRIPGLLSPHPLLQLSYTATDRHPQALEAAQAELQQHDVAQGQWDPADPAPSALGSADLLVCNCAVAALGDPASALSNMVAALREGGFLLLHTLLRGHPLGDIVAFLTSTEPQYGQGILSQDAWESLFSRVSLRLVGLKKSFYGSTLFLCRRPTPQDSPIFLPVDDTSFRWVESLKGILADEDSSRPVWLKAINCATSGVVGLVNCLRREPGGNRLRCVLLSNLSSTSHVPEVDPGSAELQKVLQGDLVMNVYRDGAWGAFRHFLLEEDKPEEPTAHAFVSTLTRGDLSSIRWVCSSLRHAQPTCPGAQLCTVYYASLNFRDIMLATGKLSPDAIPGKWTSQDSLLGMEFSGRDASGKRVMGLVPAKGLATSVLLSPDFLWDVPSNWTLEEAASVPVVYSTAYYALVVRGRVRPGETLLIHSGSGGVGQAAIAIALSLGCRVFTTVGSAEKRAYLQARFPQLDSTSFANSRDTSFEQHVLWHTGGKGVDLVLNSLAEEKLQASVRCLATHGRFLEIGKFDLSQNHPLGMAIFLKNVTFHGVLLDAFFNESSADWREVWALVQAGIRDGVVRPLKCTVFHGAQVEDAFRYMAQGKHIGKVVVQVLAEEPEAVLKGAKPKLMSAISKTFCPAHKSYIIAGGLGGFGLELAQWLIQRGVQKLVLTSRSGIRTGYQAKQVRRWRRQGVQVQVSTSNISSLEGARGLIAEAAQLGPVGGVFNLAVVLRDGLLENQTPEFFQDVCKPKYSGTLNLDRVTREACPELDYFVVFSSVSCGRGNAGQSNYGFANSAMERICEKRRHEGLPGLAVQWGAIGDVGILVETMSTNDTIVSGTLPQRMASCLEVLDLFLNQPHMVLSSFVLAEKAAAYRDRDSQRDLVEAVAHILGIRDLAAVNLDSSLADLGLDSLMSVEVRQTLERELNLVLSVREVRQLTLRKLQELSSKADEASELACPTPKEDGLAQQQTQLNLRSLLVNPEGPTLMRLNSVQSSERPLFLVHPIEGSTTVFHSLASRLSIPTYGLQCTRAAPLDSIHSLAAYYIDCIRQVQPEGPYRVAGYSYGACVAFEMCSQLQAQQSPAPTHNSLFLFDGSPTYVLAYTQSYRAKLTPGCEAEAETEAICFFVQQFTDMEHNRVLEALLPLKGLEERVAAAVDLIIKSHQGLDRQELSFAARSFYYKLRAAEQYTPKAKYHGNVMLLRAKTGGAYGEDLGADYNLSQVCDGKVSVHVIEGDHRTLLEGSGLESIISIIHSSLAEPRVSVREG
Sequence of Nucleotide-binding oligomerization domain-containing protein 2 (Q9HC29 whole entry, the tested form may be a part): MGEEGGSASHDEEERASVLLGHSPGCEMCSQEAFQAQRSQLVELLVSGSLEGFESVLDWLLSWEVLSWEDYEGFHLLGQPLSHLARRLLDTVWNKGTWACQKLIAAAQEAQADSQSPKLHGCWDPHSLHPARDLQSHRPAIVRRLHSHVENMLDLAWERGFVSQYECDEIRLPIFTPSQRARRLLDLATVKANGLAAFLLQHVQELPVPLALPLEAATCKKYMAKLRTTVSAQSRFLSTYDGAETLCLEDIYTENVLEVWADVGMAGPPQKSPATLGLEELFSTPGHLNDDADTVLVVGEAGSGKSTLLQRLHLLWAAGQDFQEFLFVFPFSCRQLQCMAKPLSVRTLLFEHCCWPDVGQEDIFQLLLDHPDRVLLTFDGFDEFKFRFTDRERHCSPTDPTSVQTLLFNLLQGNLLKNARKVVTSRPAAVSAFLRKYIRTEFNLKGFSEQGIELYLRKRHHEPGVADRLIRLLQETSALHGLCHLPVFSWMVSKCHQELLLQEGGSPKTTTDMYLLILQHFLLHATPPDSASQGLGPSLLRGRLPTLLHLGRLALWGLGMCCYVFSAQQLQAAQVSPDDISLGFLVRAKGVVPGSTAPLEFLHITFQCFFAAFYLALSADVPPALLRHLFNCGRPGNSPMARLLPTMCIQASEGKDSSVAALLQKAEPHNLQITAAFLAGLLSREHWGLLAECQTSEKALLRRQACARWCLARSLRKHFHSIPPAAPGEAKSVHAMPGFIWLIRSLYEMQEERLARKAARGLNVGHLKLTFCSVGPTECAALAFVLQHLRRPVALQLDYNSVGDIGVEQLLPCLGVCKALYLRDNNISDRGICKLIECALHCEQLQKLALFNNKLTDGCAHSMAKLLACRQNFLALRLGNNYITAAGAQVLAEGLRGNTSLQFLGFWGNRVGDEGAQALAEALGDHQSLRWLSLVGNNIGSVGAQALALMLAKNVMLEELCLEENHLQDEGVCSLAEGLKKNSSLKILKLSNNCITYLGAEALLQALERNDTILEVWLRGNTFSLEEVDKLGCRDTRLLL
Sequence of Nuclear receptor subfamily 0 group B member 1 (P51843 whole entry): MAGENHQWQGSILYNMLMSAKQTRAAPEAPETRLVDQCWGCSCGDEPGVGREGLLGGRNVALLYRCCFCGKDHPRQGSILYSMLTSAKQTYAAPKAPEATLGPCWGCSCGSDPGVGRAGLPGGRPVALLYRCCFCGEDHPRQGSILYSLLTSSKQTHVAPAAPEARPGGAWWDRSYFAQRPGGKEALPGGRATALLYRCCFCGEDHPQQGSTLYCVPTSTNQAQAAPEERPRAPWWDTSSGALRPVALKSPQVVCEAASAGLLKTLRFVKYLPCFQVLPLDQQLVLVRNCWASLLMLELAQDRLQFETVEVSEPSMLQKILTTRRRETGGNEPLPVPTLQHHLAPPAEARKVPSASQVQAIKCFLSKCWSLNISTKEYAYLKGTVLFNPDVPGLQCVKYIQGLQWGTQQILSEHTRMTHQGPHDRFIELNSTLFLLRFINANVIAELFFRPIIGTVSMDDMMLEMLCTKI

For `CCCCN(C(C)=O)C1CC(=O)N(c2ccc(OCCC)cc2)C1=O` (stereo not drawn), the IC50 [1] was > 67.5 µM (inactive) and the IC50 (HEK293 [2]) was > 67.5 µM (inactive).

With `O=C(N/N=C/c1cccc2cccnc12)c1ccccc1O` the CC50 [3] was > 20 µM (active), the EC50 (HEK293 [4]) was > 35.4 µM (not active) and the EC50 [5] was > 20 µM (inactive). The IC50 (HEK293 [6]) was 6.52 µM (active), the IC50 (HEK293 [7]) was > 20 µM (inactive) and the EC50 (HEK293 [8]) was > 20 µM (inactive). The IC50 (HEK293 [9]) was > 20 µM (inactive), the AC50 [10] was 24.8 µM (active) and the CC50 (Vero) was 18.8 µM (active). For the same compound, the EC50 [11] was > 35.4 µM (not active), the IC50 (HEK293 [12]) was 5.04 µM (inactive) and the CC50 [13] was 11.7 µM (active). For the same compound, the IC50 (cells) was 0.97 µM (active) and the EC50 [14] was > 35.4 µM (not active).

With `O=C(Nc1ccc(OC(F)(F)F)cc1)Nc1cccc([N+](=O)[O-])c1` the IC50 (Caspase-3) was 89.9 µM (active), the IC50 [15] was > 100 µM (inactive) and the IC50 (Fatty acid synthase [16]) was 6.74 µM (active). For the same compound, the AC50 (INS1) was 2.8 µM (active), the IC50 [17] was > 100 µM (inactive) and the IC50 (Fatty acid synthase [18]) was 6.14 µM (active). The IC50 [19] was 1.27 µM (active), the IC50 [20] was 8.57 µM (active) and the IC50 [21] was 1.42 µM (active).

With `Cc1cccc(NC(=O)CNC(=O)Cn2ncc(Cl)c(Cl)c2=O)c1C` the AC50 [10] was 13.4 µM (active), the AC50 [22] was 6.82 µM (active) and the AC50 (A-375) was 20.5 µM (active).
